Measured values as given in patent US20110028447A1, “INDAZOLE DERIVATIVES” (Pfizer Inc., priority 2008, published 2011).

target: human CB1 receptor (Homo sapiens, UniProt P21554); experiment: Human CB1 receptor binding, [3H] CP-55,940 displacement on HEK cell membranes; design: expressed in transfected cells; host or cells: HEK cells, doxycycline-induced; membrane preparation; settings: CB1 Ki
Method: The Human CB1 receptor binding affinity and other biological activities of the compounds of this invention are determined by the following procedures. Membrane preparation: Human Embryonic Kidney (HEK) Cells expressing the human CB1 receptor under transcriptional regulation of a tetracycline inducible promoter were grown in Dulbecco's Modified Essential Medium with sodium pyruvate (Invitrogen, Carlsbad, Calif.) containing 10% tetracycline free fetal bovine serum (Clonetech, Mountain View, Calif.) 100 μg/ml hygromycin (Calbiochem, San Diego, Calif.), 5 μg/ml blasticidin (Invitrogen). CB1 receptor expression was induced by addition of 1 μg/ml doxycycline (Calbiochem) and incubation for an additional 24 hours. Cells were released from flasks using Cell Dissociation Buffer (Invitrogen). Cells were pelleted by centrifugation at 500×G for 5 minutes. Membranes were prepared by resuspending cells in ice cold TEE Buffer (25 mM Tris pH 7.4, 5 mM EDTA, 5 mM EGTA, Complete Protease Inhibitor (Roche, Basel, Switzerland)). Cells were lysed with 12 strokes of a dounce homogenizer. Unlysed cells were pelleted by centrifugation at 500×G for 5 minutes. Membranes were pelleted by centrifugation at 25,000×G for 30 minutes. Membranes were resuspended in TEE, dounced 12 strokes, and pelleted a second time at 25,000×G for 30 minutes. Membrane pellet was resuspended in 50 mM Tris pH 7.4, 100 mM NaCl, 3 mM MgCl2, 0.2 mM EGTA, Complete Protease Inhibitor (Roche). Protein concentration was determined using the Micro-BCA Protein Assay Kit (Pierce, Rockford, Ill.) using BSA as a standard. Membranes were quick frozen and stored at −80 degrees Celsius until use.
Binding experiments: 50 μl of test compound was incubated with 50 μl of [^3H] CP-55,940 (Perkin Elmer, Boston, Mass.) (final concentration=[…]) and 150 μl of membrane homogenate (1 μg/well) in polypropylene 96-well plates (Corning, Acton, Mass.). Final reaction conditions were 50 mM Tris pH 7.4, 100 mM NaCl, 3 mM MgCl2, 0.2 mM EGTA, 0.04% BSA. Nonspecific binding was determined by incubation with 50 μM WIN-55, 212-2 (Tocris, Ellisville, Mo.). After incubation at room temperature for 60 minutes reactions were harvested by vacuum filtration through Unifilter GF/B-96 filters (Perkin Elmer) that had been presoaked in assay buffer containing 0.5% BSA (Sigma, St. Louis, Mo.) using a FilterMate Plate Harvester (Perkin Elmer). Filters were rinsed 4 times with 50 mM Tris pH 7.4, 0.025% Tween-20 and dried at 50 degrees Celsius for at least 30 minutes. 40 μl of Microscint-20 (Perkin Elmer) was added per well, and plates were counted using a Top-Count Microplate Scintillation Counter (Perkin Elmer). Binding data were analyzed and EC50 and K, values calculated using Graph Pad Prism 4.0 Software.

Chain of human CB1 receptor (P21554 whole entry): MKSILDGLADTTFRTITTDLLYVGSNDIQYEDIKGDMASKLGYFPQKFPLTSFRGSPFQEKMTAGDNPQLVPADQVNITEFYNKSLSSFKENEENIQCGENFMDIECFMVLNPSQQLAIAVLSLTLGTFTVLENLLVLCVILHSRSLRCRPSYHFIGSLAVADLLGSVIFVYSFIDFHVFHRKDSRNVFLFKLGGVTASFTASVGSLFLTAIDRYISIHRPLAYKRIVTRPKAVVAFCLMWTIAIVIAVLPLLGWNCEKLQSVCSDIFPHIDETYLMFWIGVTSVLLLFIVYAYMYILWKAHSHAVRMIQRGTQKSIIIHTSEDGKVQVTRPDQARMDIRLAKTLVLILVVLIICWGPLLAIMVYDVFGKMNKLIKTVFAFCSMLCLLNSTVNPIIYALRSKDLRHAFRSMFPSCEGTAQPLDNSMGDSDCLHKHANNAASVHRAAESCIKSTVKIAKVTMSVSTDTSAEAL

Structure (SMILES) | Ki
CN1CCN=C1CNC(=O)[C@@H](NC(=O)c1nn(Cc2ccc(F)cc2)c2ccccc12)C(C)(C)C [Example 304] | 0.152 µM
COc1cc(C#N)ccc1Cn1nc(C(=O)N[C@H](C(=O)NCC(N)=O)C(C)(C)C)c2ccccc21 [Example 388] | > 0.4 µM
CC(C)(C)[C@H](NC(=O)c1nn(Cc2ccc(F)cc2)c2ccccc12)C(=O)N[C@H]1CNC(=O)C1 [Example 455] | 0.0336 µM
CC(C)(C)[C@H](NC(=O)c1nn(Cc2ccc(F)cc2)c2ccc(Cl)cc12)C(=O)NC(CO)CO [Example 435] | 0.0065 µM
CC(C)(C)[C@H](NC(=O)c1nn(Cc2cccc3ccccc23)c2ccccc12)C(=O)NCCO [Example 274] | > 0.4 µM
CC(C)(C)[C@H](NC(=O)c1nn(Cc2ccc(C#N)cc2)c2ccc(Cl)cc12)C(=O)NC(CO)CO [Example 448] | > 0.4 µM
COc1cc(C#N)ccc1Cn1nc(C(=O)N[C@H](C(=O)NC[C@@H](O)CO)C(C)(C)C)c2ccccc21 [Example 389] | > 0.4 µM
COc1cc(C#N)ccc1Cn1nc(C(=O)N[C@H](C(=O)NC2CC2)C(C)(C)C)c2ccccc21 [Example 393] | > 0.4 µM
CC(C)(C)[C@H](NC(=O)c1nn(Cc2ccc(C#N)cc2)c2ccccc12)C(=O)NO [Example 412] | > 0.4 µM
CC(C)(C)[C@H](NC(=O)c1nn(Cc2ccc(C#N)cc2F)c2ccccc12)C(=O)N[C@H]1C[C@@H](C(N)=O)C1 [Example 397] | 0.243 µM
CC(C)(C)[C@H](NC(=O)c1nn(Cc2ccc(C#N)cc2)c2cc(F)ccc12)C(=O)NC[C@@H](O)CO [Example 297] | 0.124 µM
CC(C)(C)[C@H](NC(=O)c1nn(Cc2ccc(C#N)cc2)c2ccc(Cl)cc12)C(=O)NC[C@@H](O)CO [Example 445] | > 0.4 µM
CC(C)(C)[C@H](NC(=O)c1nn(Cc2ccc(F)cc2)c2ccccc12)C(=O)N[C@H]1CCC[C@@H]1O [Example 279] | 0.0541 µM
CC(C)(C)[C@H](NC(=O)c1nn(Cc2ccc(F)cc2)c2ccccc12)C(=O)NCC(=O)O [Example 9, N-{[1-(4-fluorobenzyl)-1H-indazol-3-yl]carbonyl}-3-methyl-L-valylglycine] | 0.0842 µM
CC(C)(C)[C@H](NC(=O)c1nn(Cc2ccc(C#N)cc2F)c2c(F)c(F)ccc12)C(=O)NCC(N)=O [Example 359] | 0.0472 µM
COc1cc(C#N)ccc1Cn1nc(C(=O)N[C@H](C(=O)NCCS(N)(=O)=O)C(C)(C)C)c2ccccc21 [Example 390] | > 0.4 µM

Structure (SMILES) | Ki
CC(C)(C)[C@H](NC(=O)c1nn(Cc2ccc(C#N)cc2)c2ccccc12)C(=O)N1CC(C(N)=O)C1 [Example 351] | 0.0243 µM
CC(C)NC(=O)[C@@H](NC(=O)c1nn(Cc2ccc(C#N)cc2)c2ccccc12)C(C)(C)C [Example 405] | 0.0481 µM
COc1cc(C#N)ccc1Cn1nc(C(=O)N[C@H](C(=O)NCCO)C(C)(C)C)c2ccccc21 [Example 386] | 0.209 µM
COc1cc(C#N)ccc1Cn1nc(C(=O)N[C@@H](C(N)=O)C(C)(C)C)c2ccccc21 [Example 394] | > 0.4 µM
CC(C)(C)[C@H](NC(=O)c1nn(Cc2ccc(C(F)(F)F)cc2)c2ccccc12)C(=O)NC[C@@H](O)CO [Example 260] | > 0.4 µM
CC(C)(C)[C@H](NC(=O)c1nn(Cc2ccc(C#N)cc2F)c2c(F)cccc12)C(=O)NC[C@H](O)CO [Example 367] | 0.0414 µM
CC(C)(C)[C@H](NC(=O)c1nn(Cc2ccc(C#N)cc2)c2cc(F)ccc12)C(=O)NCC1CCC(=O)N1 (stereo partly drawn) [Example 403] | > 0.4 µM
CC(C)(C)[C@H](NC(=O)c1nn(Cc2ccc(C#N)cc2)c2ccccc12)C(=O)N[C@H]1C[C@@H](C(N)=O)C1 [Example 396] | 0.239 µM
CC(C)(C)[C@H](NC(=O)c1nn(Cc2ccc(C(F)(F)F)cc2)c2ccccc12)C(=O)NCCS(N)(=O)=O [Example 257] | 0.224 µM
CC(C)(C)[C@H](NC(=O)c1nn(Cc2ccc(C#N)cc2)c2ccccc12)C(=O)N[C@@H]1CNC(=O)C1 [Example 456] | 0.0438 µM
CC(C)(C)[C@H](NC(=O)c1nn(Cc2ccc(F)cc2)c2ccc(Cl)cc12)C(=O)NCCO [Example 428] | 0.00089 µM
COc1cc(C#N)ccc1Cn1nc(C(=O)N[C@H](C(=O)NC(CO)CO)C(C)(C)C)c2ccccc21 [Example 391] | > 0.4 µM
CC(C)(C)[C@H](NC(=O)c1nn(Cc2ccc(C#N)cc2)c2cc(F)ccc12)C(=O)N[C@H]1C[C@H](O)C1 [Example 356] | 0.0326 µM
CC(C)(C)[C@H](NC(=O)c1nn(Cc2cccc3ccccc23)c2ccccc12)C(=O)NCC(N)=O [Example 275] | > 0.4 µM
CC(C)(C)[C@H](NC(=O)c1nn(Cc2ccc(C#N)cc2)c2ccc(Cl)cc12)C(=O)NC1CC1 [Example 446] | 0.168 µM

same assay, conditions: read-out: CB1 Ki

Structure (SMILES) | Ki
Cc1cc(O)nc(CNC(=O)[C@@H](NC(=O)c2nn(Cc3ccc(C#N)cc3)c3c(F)cccc23)C(C)(C)C)n1 [Example 349] | 0.101 µM
COc1cccc(C2(NC(=O)[C@@H](NC(=O)c3nn(Cc4ccc(C#N)cc4)c4c(F)cccc34)C(C)(C)C)CC2)c1 [Example 212] | 0.0521 µM
CC(C)(C)[C@H](NC(=O)c1nn(Cc2ccc(F)cc2)c2ccccc12)C(=O)NCc1nnc2n1CCC2 [Example 419] | 0.11 µM
CN(CCO)C[C@@H](O)CNC(=O)[C@@H](NC(=O)c1nn(Cc2ccc(F)cc2)c2ccccc12)C(C)(C)C [Example 507] | 0.212 µM
CC(C)(C)[C@H](NC(=O)c1nn(Cc2ccc(F)cc2)c2ccccc12)C(=O)NCc1[nH]nc2c1CCC2 [Example 460] | 0.0246 µM
CC(C)(C)[C@H](NC(=O)c1nn(Cc2ccc(F)cc2)c2ccccc12)C(=O)N1C[C@@H]2C[C@H]1CN2C(=O)CCC(N)=O [Example 227] | > 0.4 µM
CC(C)(C)[C@H](NC(=O)c1nn(Cc2ccc(F)cc2)c2ccccc12)C(=O)N1CCCC(C(=O)NC[C@H](O)CO)C1 (stereo partly drawn) [Example 278] | 0.0688 µM
CC(C)(C)[C@H](NC(=O)c1nn(Cc2ccc(F)cc2)c2ccccc12)C(=O)N[C@@H](CC(N)=O)C(N)=O [Example 239] | 0.0468 µM
CN1CC(CNC(=O)[C@@H](NC(=O)c2nn(Cc3ccc(C#N)cc3)c3c(F)cccc23)C(C)(C)C)CC1=O (stereo partly drawn) [Example 409] | 0.073 µM
Cc1nnc(CNC(=O)[C@@H](NC(=O)c2nn(Cc3ccc(C#N)cc3F)c3c(F)c(F)ccc23)C(C)(C)C)o1 [Example 364] | 0.0209 µM
CC(C)(C)[C@H](NC(=O)c1nn(Cc2ccc(F)cc2)c2ccccc12)C(=O)N1CCC(O)(CNC(=O)C2CC2)CC1 [Example 229] | 0.0313 µM
COc1cc(CNC(=O)[C@@H](NC(=O)c2nn(Cc3ccc(C#N)cc3)c3cc(F)ccc23)C(C)(C)C)on1 [Example 313] | 0.273 µM
CC(C)(C)[C@H](NC(=O)c1nn(Cc2ccc(F)cc2)c2ccccc12)C(=O)N1C[C@@H]2C[C@H]1CN2CC(O)CO (stereo partly drawn) [Example 232] | 0.0542 µM
CC(C)(C)[C@H](NC(=O)c1nn(Cc2ccc(F)cc2)c2ccccc12)C(=O)N[C@H](CC(N)=O)C(N)=O [Example 290] | 0.092 µM
CCOC(=O)c1ccc(Cn2nc(C(=O)N[C@H](C(=O)NCCO)C(C)(C)C)c3ccccc32)c(F)c1 [Example 484] | > 0.4 µM
CC(C)(C)[C@H](NC(=O)c1nn(Cc2ccc(F)cc2)c2ccccc12)C(=O)N1C[C@@H]2C[C@H]1CN2C(N)=O [Example 219] | > 0.4 µM
CN1CC(CNC(=O)[C@@H](NC(=O)c2nn(Cc3ccc(C#N)cc3)c3cc(F)ccc23)C(C)(C)C)CC1=O (stereo partly drawn) [Example 410] | 0.104 µM
